Assay results: patent publication EP2364976B1, “S1P receptor modulating compounds and use thereof” (EPIX Pharmaceuticals, Inc., priority 2007, dated 2007)

target: T1, hS1P1 (Homo sapiens, UniProt P21453); assay: hS1P1 EC50 (S1P receptor Ca2+ flux protocol, FLIPR, CHO K1 Gqi5 cells); format: cell-based; conditions: several values per compound = repeat determinations as printed
T1 construct: expressed in transfected cells
Description: S1P receptor activity may also be measured by an SIP receptor (e.g., hS1P1, hS1P3, rS1P1, rS1P3 and parental cell) Ca^2+ Flux protocol as described below: • 1. Material • a. FLIPR buffer: 1x HBSS; 10mM HEPES • b. Cell growth media: • i. human and rat S1P1 and S1P3: F12-Ham's media; 10% FBS (qualified); 1x Pen/Strep/Glu; 300ug/mL Hygromycin; 400ug/mL Geneticin ii. Parental cell: human and rat S1P and S1P3: F12-Ham's media; 10% FBS (qualified); 1x Pen/Strep/Glu; 300ug/mL Hygromycin; • c. Cell seeding media; F12-Ham's media; 10% FBS (Charcoal/dextran stripped); 1x Pen/Strep/Glu; • d. Cell dissociation buffer: Versene from Invitrogen • e. Agonist (SIP) dissolving buffer: 0.4% (w/v) fatty-acid free BSA (Sigma # A8806) in FLIPR buffer • f. FLIPR dye: BD PBX Calcium assay kit; Cat#641077 is composed of Calcium indicator (Cat#850000) and 100x PBX signal enhancer (cat#850001). The 100x PBX signal enhancer is diluted into FLIPR buffer 1:100 and the calcium indicator is then added at 1:1000 ratio. • g. Cell plates (96-well): Greiner Cat#655090 • h. Compound plates (96-well): Costar #3365 • i. S1P stock solution preparation: S1P is purchased from CalBioChem (Catalog # 970471; 1mg vial; custom prep using methanol, & nitrogen gas drying inside glass vial; Storage @ -20°C). Dissolve 1 vial of SIP into 26.4ml of agonist dissolving buffer in a 50ml centrifuge tube; Remove label from bottle of SIP, open and drop entire bottle into tube. Sonicate at 37° for ½ hour. Clear solution of 100µM will result. This stock solution is aliquoted and stored at -80C • 2. Cell line maintenance • a. V5 tags were added at the N-terminus of hS1P1, hS1P3, rS1P1 and rS1P3. All four genes were transfected into CHO K1 cells which stably express Gqi5. • b. hS1P1 and hS1P3 were established as stable clones and rS1P1 and rS1P3 were sorted by anti V5 tag and established as stable pools after sorting. • c. Parental cell line CHO/K1 Gqi5 is used as the control. • d. All the cells are maintained in cell growth media and splitted twice a week using Versene. • e. All the cell lines are used under passage 30. • 3. Assay protocol • a. Cell seeding: Cells are lifted from the flask by Versene and seeded in cell plates at 50K/well in cell seeding media. Cells are grown overnight at 37 degree. • b. Cell loading: Cell seeding media is discarded. Cells are loaded with 50ul of FLIPR dye at RT for 90 min. Signal is stable for up to 5 h after dye loading. • c. Agonist (S1P) preparation: Frozen stock of S1P is thawed out and sonicated at 37c for 30 minutes every time before use. The stock is then diluted into FLIPR buffer at proper concentration. • d. Compound preparation: Compounds are dissolved in DMSO. A 3x, 10 point dilution of the compounds are carried out in DMSO. Then the compounds are diluted into assay buffer133x so that the DMSO concentration is 0.75%. • e. Activity measurement: The fluorescence signal change of the cells upon compound addition is monitored in FLIPRtetra. 25ul of compound is transferred into the cell plates (50ul of FLIPR dye; DMSO concentration: 0.25%). Signal is recorded for 90sec after compound addition. Then 50ul of 500nM SIP is added in the cell plate, and signal is recorded for 90 seconds upon addition. • 4. Data analysis • a. Peak value is calculated for each compound/S1P addition • b. The peak value of S1P at 200nM is used as high control (100%), and the peak value of buffer only is used as low control (0%). • c. Data is normalized against high and low controls using the following equation: POC_S = 100*(RAW-LO)/(HI-LO) [formula] • d. Peak value is plotted against the concentration of compound. • e. Curve is fitted using the 4 parameter fit: Y = (A+(B/(1+(((x/C))^(∧)D)))) [formula] where: Y is POC_S (or POC) • X is compound concentration • A is the minimum (EC50min or IC50min) • B is the maxmum (EC50max or IC50max) • C is the inflection point (EC50IP or IC50IP) • D is the hill slope (EC50 slope or IC50 slope).

T1 sequence (P21453 whole entry): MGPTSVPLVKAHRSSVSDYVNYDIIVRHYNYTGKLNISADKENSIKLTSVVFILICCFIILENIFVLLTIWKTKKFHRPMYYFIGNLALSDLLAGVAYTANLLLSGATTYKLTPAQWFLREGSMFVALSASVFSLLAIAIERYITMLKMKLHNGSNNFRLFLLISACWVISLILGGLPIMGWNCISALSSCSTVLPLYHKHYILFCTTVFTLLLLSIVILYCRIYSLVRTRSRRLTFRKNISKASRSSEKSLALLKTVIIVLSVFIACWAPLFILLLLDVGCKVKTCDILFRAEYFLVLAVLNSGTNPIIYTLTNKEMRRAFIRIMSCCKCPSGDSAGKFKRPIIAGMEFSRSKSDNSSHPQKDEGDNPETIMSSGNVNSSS

**Q.** Which EC50 does the source give for `O=C(O)C1CN(Cc2ccc(-c3cc4ccccc4o3)c(F)c2)C1` [Reference Compound 68, 1-(4-(benzofuran-2-yl)-3-fluoro-benzyl)azetidine-3-carboxylic acid] here?
**A.** 706 nM

**Q.** `O=C(O)C1CN(Cc2ccc(-c3cc4cc(COc5ccccc5)ccc4o3)c(F)c2)C1` [Reference Compound 69, 1-(3-Fluoro-4-(5-(phenoxymethyl)benzofuran-2-yl)benzyl)azetidine-3-carboxylic acid] was tested. Which EC50 did it give?
**A.** 87 nM

**Q.** With `O=C(O)C1CN(Cc2ccc(-c3cc4cc(COC5CCCCC5)ccc4o3)c(F)c2)C1` [Reference Compound 70] as the compound, how does the EC50 read?
**A.** 91 nM

**Q.** How did the EC50 turn out when `O=C(O)C1CN(Cc2ccc(-c3cc4cc(Cc5ccc(F)cc5)ccc4o3)c(F)c2)C1` [Reference Compound 73, 1-(3-fluoro-4-(5-(4-fluorobenzyl)benzofuran-2-yl)benzyl)azetidine-3-carboxylic acid] was run?
**A.** 53 nM

**Q.** With `O=C(O)C1CN(Cc2ccc(-c3cc4cc(CC5CCCCC5)ccc4o3)c(F)c2)C1` [Reference Compound 74, 1-(4-(5-(Cyclohexylmethyl)benzofuran-2-yl)-3-fluorobenzyl)azetidine-3-carboxylic acid] as the compound, how does the EC50 read?
**A.** 400 nM

**Q.** Which EC50 does the source give for `O=C(O)C1CN(Cc2ccc(-c3cc4cc(Cc5ccccc5F)ccc4o3)c(F)c2)C1` [Reference Compound 75, 1-(3-Fluoro-4-(5-(2-fluorobenzyl)benzofuran-2-yl)benzyl)azetidine-3-carboxylic acid] here?
**A.** 129 nM

**Q.** `O=C(O)C1CN(Cc2ccc(-c3cc4cc(Cc5cccc(F)c5)ccc4o3)c(F)c2)C1` [Reference Compound 76, 1-(3-Fluoro-4-(5-(3-fluorobenzyl)benzofuran-2-yl)benzyl)azetidine-3-carboxylic acid] was tested. Which EC50 did it give?
**A.** 169 nM

**Q.** With `O=C(O)C1CN(Cc2ccc(-c3cc4cc(Oc5ccccc5)ccc4o3)c(F)c2)C1` [Reference Compound 77, 1-(3-Fluoro-4-(5-phenoxybenzofuran-2-yl)benzyl)azetidine-3-carboxylic acid] as the compound, how does the EC50 read?
**A.** 13 nM

**Q.** `Fc1cc(CN2CC(c3nn[nH]n3)C2)ccc1-c1cc2cc(Cc3ccccc3)ccc2o1` [Reference Compound 78, 5-(1-(4-(5-Benzylbenzofuran-2-yl)-3-fluorobenzyl)azetidin-3-yl)-2H-tetrazole] was tested. Which EC50 did it give?
**A.** 2090 nM

**Q.** How did the EC50 turn out when `O=C(O)C1CN(Cc2ccc(-c3ccc4oc(Cc5ccccc5)cc4c3)c(F)c2)C1` [Reference Compound 80, 1-(4-(2-Benzylbenzofuran-5-yl)-3-fluorobenzyl)azetidine-3-carboxylic acid] was run?
**A.** 59 nM

**Q.** For `O=C(O)C1CN(Cc2ccc(-c3cc4cc(Cc5ccccc5)ccc4s3)c(F)c2)C1` [Reference Compound 81, 1-(4-(5-Benzylbenzo[b]thiophen-2-yl)-3-fluorobenzyl)azetidine-3-carboxylic acid], which EC50 is on record?
**A.** 11 nM

**Q.** Which EC50 does the source give for `CC(CNCc1ccc(-c2cc3cc(Cc4ccccc4)ccc3o2)c(F)c1)C(=O)O` (stereo not drawn) [Reference Compound 82, 3-(4-(5-Benzylbenzofuran-2-yl)-3-fluorobenzylamino)-2-methylpropanoic acid] here?
**A.** 1300 nM

**Q.** With `NC(=O)CC(NCc1ccc(-c2cc3cc(Cc4ccccc4)ccc3o2)c(F)c1)C(=O)O` (stereo not drawn) [Reference Compound 83, 4-Amino-2-(4-(5-benzylbenzofuran-2-yl)-3-fluorobenzylamino)-4-oxobutanoic acid] as the compound, how does the EC50 read?
**A.** 2300 nM

**Q.** Which EC50 does the source give for `O=C(O)C1CN(Cc2cnc(-c3cc4cc(Cc5ccccc5)ccc4o3)c(F)c2)C1` [Reference Compound 84, 1-((6-(5-Benzylbenzofuran-2-yl)-5-fluoropyridin-3-yl)methyl)azetidine-3-carboxylic acid] here?
**A.** 470 nM

**Q.** Which EC50 does the source give for `NC(=O)C(CC(=O)O)NCc1ccc(-c2cc3cc(Cc4ccccc4)ccc3o2)c(F)c1` (stereo not drawn) [Reference Compound 85, 4-Amino-3-(4-(5-benzylbenzofuran-2-yl)-3-fluorobenzylamino)-4-oxobutanoic acid] here?
**A.** 1880 nM

**Q.** For `Cc1ccc(Cc2ccc3oc(-c4ccc(CN5CC(C(=O)O)C5)cc4F)cc3c2)cc1` [Reference Compound 86, 1-(3-Fluoro-4-(5-(4-methylbenzyl)benzofuran-2-yl)benzyl)azetidine-3-carboxylic acid], which EC50 is on record?
**A.** 12 nM

**Q.** With `O=C(O)C1CN(Cc2ccc(-n3cc4cc(Cc5ccccc5)ccc4n3)c(F)c2)C1` [Reference Compound 87, 1-(4-(5-Benzyl-2H-indazol-2-yl)-3-fluorobenzyl)azetidine-3-carboxylic acid] as the compound, how does the EC50 read?
**A.** 94 nM

**Q.** For `O=C(O)C1(O)CN(Cc2ccc(-c3cc4cc(Cc5ccccc5)ccc4o3)c(F)c2)C1` [Reference Compound 88, 1-((4-(5-Benzylbenzofuran-2-yl)-3-fluorophenyl)methyl)-3-hydroxyazetidine-3-carboxylic acid], which EC50 is on record?
**A.** 105 nM

**Q.** Which EC50 does the source give for `O=C(O)C1(O)CN(Cc2ccc(-c3nc4cc(Cc5ccccc5)ccc4s3)c(F)c2)C1` [Reference Compound 89, 1-((4-(5-Benzylbenzo[d]thiazol-2-yl)-3-fluorophenyl)methyl)-3-hydroxyazetidine-3-carboxylic acid] here?
**A.** 27 nM

**Q.** For `CC(c1ccccc1)c1ccc2oc(-c3ccc(CN4CC(C(=O)O)C4)cc3F)cc2c1` (stereo not drawn) [Reference Compound 90, 1-((3-Fluoro-4-(5-(1-phenylethyl)benzofuran-2-yl)phenyl)methyl)azetidine-3-carboxylic acid], which EC50 is on record?
**A.** 99 nM

**Q.** For `O=C(O)C1CN(Cc2ccc(-c3cc4cc(C(F)(F)c5ccccc5)ccc4o3)c(F)c2)C1` [Reference Compound 91, 1-((4-(5-(Difluoro(phenyl)methyl)benzofuran-2-yl)-3-fluorophenyl)methyl)azetidine-3-carboxylic acid], which EC50 is on record?
**A.** 13 nM

**Q.** `O=C(O)C1CN(Cc2ccc(-c3cc4ccc(Cc5ccccc5)cc4o3)c(F)c2)C1` [Reference Compound 92, 1-((4-(6-Benzylbenzofuran-2-yl)-3-fluorophenyl)methyl)azetidine-3-carboxylic acid] was tested. Which EC50 did it give?
**A.** 7 nM

**Q.** For `O=C(O)C1CN(Cc2ccc(-c3cc4cc(Cc5ccccn5)ccc4o3)c(F)c2)C1` [Reference Compound 93, 1-((3-Fluoro-4-(5-(pyridin-2-ylmethyl)benzofuran-2-yl)phenyl)methyl)azetidine-3-carboxylic acid], which EC50 is on record?
**A.** 31 nM

**Q.** `O=C(O)C1CN(Cc2ccc(-c3cc4cc(Cc5nccs5)ccc4o3)c(F)c2)C1` [Reference Compound 94, 1-((3-Fluoro-4-(5-(thiazol-2-ylmethyl)benzofuran-2-yl)phenyl)methyl)azetidine-3-carboxylic acid] was tested. Which EC50 did it give?
**A.** 76 nM

**Q.** For `O=C(O)C1CN(Cc2cccc(-c3cc4cc(Cc5ccccc5)ccc4o3)c2)C1` [Reference Compound 96, 1-(3-(5-Benzylbenzofuran-2-yl)benzyl)azetidine-3-carboxylic acid], which EC50 is on record?
**A.** 4830 nM

**Q.** `CC(C)(c1ccccc1)c1ccc2oc(-c3ccc(CN4CC(C(=O)O)C4)cc3F)cc2c1` [Reference Compound 97, 1-((3-Fluoro-4-(5-(2-phenylpropan-2-yl)benzofuran-2-yl)phenyl)methyl)azetidine-3-carboxylic acid] was tested. Which EC50 did it give?
**A.** 365 nM

**Q.** `O=C(O)C1CN(Cc2ccc(-c3cc4cc(Cc5ccccc5)ccc4[nH]3)c(F)c2)C1` [Reference Compound 99, 1-((3-Fluoro-4-(5-(phenylmethyl)-1H-indol-2-yl)phenyl)methyl)-3-azetidinecarboxylic acid] was tested. Which EC50 did it give?
**A.** 1340 nM
